Patent US20250269072A1, “PROCESSES FOR PREPARING RADIOLABELLED CONJUGATES” (CENTENARY INSTITUTE OF CANCER MEDICINE AND CELL BIOLOGY, priority 2021, published 2025)
Several values for one entry are separate records, joined by “and”; a condition that tells them apart may be missing. Identical values can stand only once.

Assay: Human studies: radiation dosimetry of subjects 1-4 (Olinda/EXM)
Format: in vivo
Settings: subjects 1-4 = the 7th table-the 10th table
Protocol: For subjects 1-4, radiation dosimetry was calculated using Olinda/EXM based on the organ biodistribution discussed above.
Tables 7-10 show the estimate for radiation dosimetry for subjects 1˜4 of 200 MBq of ^68Ga NODAGA GSAO for individual organs and for the whole body in mSv/MBq (EDE cont.=effective dose equivalent contribution, ED Cont.=effective dose contribution). The estimated whole-body dose from the one (1) low dose CT and two (2) ultra-low dose CTs was 9.2 mSv.

For `O=C(O)CNC(=O)[C@H](CSCC(=O)Nc1ccc([As](O)O)cc1)NC(=O)CC[C@H](NC(=O)CCC1C(=O)[O][68Ga]2[O]C(=O)CN3CCN(CCN1CC3)CC(=O)[O]2)C(=O)O` (some centres unmarked) [^68Ga-NODAGA-GSAO], the Alpha dose (Adrenals) was 0.00E+00 mSv/MBq, the “ED Cont.” value (Adrenals) was 7.09E−05 mSv/MBq and 7.38E−05 mSv/MBq and 4.84E−05 mSv/MBq and 8.93E−05 mSv/MBq and the Photon dose (Adrenals) was 4.52E−03 mSv/MBq and 5.24E−03 mSv/MBq and 3.71E−03 mSv/MBq and 4.86E−03 mSv/MBq. The Total dose (Adrenals) was 1.42E−02 mSv/MBq and 1.48E−02 mSv/MBq and 9.68E−03 mSv/MBq and 1.79E−02 mSv/MBq, the Alpha dose (Brain) was 0.00E+00 mSv/MBq and the Beta dose (Brain) was 6.82E−04 mSv/MBq and 6.40E−04 mSv/MBq and 6.13E−04 mSv/MBq and 7.79E−04 mSv/MBq. The “ED Cont.” value (Brain) was 9.10E−06 mSv/MBq and 1.05E−05 mSv/MBq and 7.39E−06 mSv/MBq and 1.00E−05 mSv/MBq, the “EDE Cont.” value (Brain) was 0.00E+00 mSv/MBq and the Photon dose (Brain) was 1.14E−03 mSv/MBq and 1.46E−03 mSv/MBq and 8.65E−04 mSv/MBq and 1.23E−03 mSv/MBq. For the same compound, the Total dose (Brain) was 1.82E−03 mSv/MBq and 2.10E−03 mSv/MBq and 1.48E−03 mSv/MBq and 2.01E−03 mSv/MBq, the Alpha dose (Breasts) was 0.00E+00 mSv/MBq and the Photon dose (Breasts) was 2.11E−03 mSv/MBq and 2.76E−03 mSv/MBq and 1.59E−03 mSv/MBq and 2.25E−03 mSv/MBq. For the same compound, the Alpha dose (Gallbladder Wall) was 0.00E+00 mSv/MBq, the “ED Cont.” value (Gallbladder Wall) was 0.00E+00 mSv/MBq and the “EDE Cont.” value (Gallbladder Wall) was 0.00E+00 mSv/MBq. For the same compound, the Photon dose (Gallbladder Wall) was 4.59E−03 mSv/MBq and 5.27E−03 mSv/MBq and 4.07E−03 mSv/MBq and 4.46E−03 mSv/MBq, the Total dose (Gallbladder Wall) was 8.07E−03 mSv/MBq and 9.96E−03 mSv/MBq and 6.09E−03 mSv/MBq and 8.56E−03 mSv/MBq and the Alpha dose (Heart Wall) was 0.00E+00 mSv/MBq. For the same compound, the Beta dose (Heart Wall) was 6.65E−03 mSv/MBq and 8.27E−03 mSv/MBq and 4.65E−03 mSv/MBq and 7.57E−03 mSv/MBq, the “ED Cont.” value (Heart Wall) was 0.00E+00 mSv/MBq and the “EDE Cont.” value (Heart Wall) was 0.00E+00 mSv/MBq. For the same compound, the Photon dose (Heart Wall) was 3.57E−03 mSv/MBq and 4.29E−03 mSv/MBq and 2.82E−03 mSv/MBq and 3.84E−03 mSv/MBq, the Total dose (Heart Wall) was 1.02E−02 mSv/MBq and 1.26E−02 mSv/MBq and 7.48E−03 mSv/MBq and 1.14E−02 mSv/MBq and the Alpha dose (Kidneys) was 0.00E+00 mSv/MBq. The Beta dose (Kidneys) was 4.32E−02 mSv/MBq and 4.21E−02 mSv/MBq and 4.45E−02 mSv/MBq and 4.30E−02 mSv/MBq, the “ED Cont.” value (Kidneys) was 2.52E−04 mSv/MBq and 2.48E−04 mSv/MBq and 2.57E−04 mSv/MBq and the “EDE Cont.” value (Kidneys) was 3.03E−03 mSv/MBq and 2.98E−03 mSv/MBq and 3.08E−03 mSv/MBq and 3.02E−03 mSv/MBq. The Photon dose (Kidneys) was 7.22E−03 mSv/MBq and 7.59E−03 mSv/MBq and 6.83E−03 mSv/MBq and 7.33E−03 mSv/MBq, the Total dose (Kidneys) was 5.04E−02 mSv/MBq and 4.97E−02 mSv/MBq and 5.13E−02 mSv/MBq and 5.03E−02 mSv/MBq and the Alpha dose (LLI Wall) was 0.00E+00 mSv/MBq. The “ED Cont.” value (LLI Wall) was 2.43E−03 mSv/MBq and 2.50E−03 mSv/MBq and 2.44E−03 mSv/MBq and 1.48E−03 mSv/MBq, the Photon dose (LLI Wall) was 7.31E−03 mSv/MBq and 7.16E−03 mSv/MBq and 5.96E−03 mSv/MBq and 8.79E−03 mSv/MBq and the Total dose (LLI Wall) was 2.02E−02 mSv/MBq and 2.08E−02 mSv/MBq and 2.03E−02 mSv/MBq and 1.23E−02 mSv/MBq. For the same compound, the Alpha dose (Liver) was 0.00E+00 mSv/MBq, the Beta dose (Liver) was 1.27E−02 mSv/MBq and 1.45E−02 mSv/MBq and 1.20E−02 mSv/MBq and 1.16E−02 mSv/MBq and the “ED Cont.” value (Liver) was 8.78E−04 mSv/MBq and 1.00E−03 mSv/MBq and 8.20E−04 mSv/MBq and 8.13E−04 mSv/MBq. For the same compound, the Photon dose (Liver) was 4.84E−03 mSv/MBq and 5.51E−03 mSv/MBq and 4.36E−03 mSv/MBq and 4.71E−03 mSv/MBq, the Total dose (Liver) was 1.76E−02 mSv/MBq and 2.00E−02 mSv/MBq and 1.64E−02 mSv/MBq and 1.63E−02 mSv/MBq and the Alpha dose (Lungs) was 0.00E+00 mSv/MBq. For the same compound, the Beta dose (Lungs) was 5.19E−03 mSv/MBq and 5.73E−03 mSv/MBq and 5.16E−03 mSv/MBq and 4.82E−03 mSv/MBq, the “ED Cont.” value (Lungs) was 9.74E−04 mSv/MBq and 1.11E−03 mSv/MBq and 9.04E−04 mSv/MBq and 9.57E−04 mSv/MBq and the “EDE Cont.” value (Lungs) was 9.74E−04 mSv/MBq and 1.11E−03 mSv/MBq and 9.04E−04 mSv/MBq and 9.57E−04 mSv/MBq. The Photon dose (Lungs) was 2.93E−03 mSv/MBq and 3.54E−03 mSv/MBq and 2.37E−03 mSv/MBq and 3.15E−03 mSv/MBq, the Total dose (Lungs) was 8.12E−03 mSv/MBq and 9.27E−03 mSv/MBq and 7.53E−03 mSv/MBq and 7.97E−03 mSv/MBq and the Alpha dose (Muscle) was 0.00E+00 mSv/MBq. The Beta dose (Muscle) was 6.19E−03 mSv/MBq and 6.08E−03 mSv/MBq and 5.15E−03 mSv/MBq and 7.68E−03 mSv/MBq, the “ED Cont.” value (Muscle) was 4.85E−05 mSv/MBq and 4.95E−05 mSv/MBq and 3.99E−05 mSv/MBq and 5.88E−05 mSv/MBq and the “EDE Cont.” value (Muscle) was 0.00E+00 mSv/MBq. For the same compound, the Photon dose (Muscle) was 3.51E−03 mSv/MBq and 3.83E−03 mSv/MBq and 2.83E−03 mSv/MBq and 4.07E−03 mSv/MBq, the Total dose (Muscle) was 9.71E−03 mSv/MBq and 9.91E−03 mSv/MBq and 7.98E−03 mSv/MBq and 1.18E−02 mSv/MBq and the Alpha dose (Osteogenic Cells) was 0.00E+00 mSv/MBq. The Photon dose (Osteogenic Cells) was 3.47E−03 mSv/MBq and 4.14E−03 mSv/MBq and 2.74E−03 mSv/MBq and 3.80E−03 mSv/MBq, the Alpha dose (Ovaries) was 0.00E+00 mSv/MBq and the Photon dose (Ovaries) was 7.00E−03 mSv/MBq and 6.95E−03 mSv/MBq and 5.52E−03 mSv/MBq and 8.79E−03 mSv/MBq. The Total dose (Ovaries) was 1.01E−02 mSv/MBq and 1.16E−02 mSv/MBq and 7.54E−03 mSv/MBq and 1.23E−02 mSv/MBq, the Alpha dose (Pancreas) was 0.00E+00 mSv/MBq and the Beta dose (Pancreas) was 1.20E−02 mSv/MBq and 1.62E−02 mSv/MBq and 1.13E−02 mSv/MBq and 1.18E−02 mSv/MBq. The “ED Cont.” value (Pancreas) was 8.46E−05 mSv/MBq and 1.10E−04 mSv/MBq and 7.72E−05 mSv/MBq and 8.44E−05 mSv/MBq, the “EDE Cont.” value (Pancreas) was 8.14E−04 mSv/MBq and 1.32E−03 mSv/MBq and 9.27E−04 mSv/MBq and 1.01E−03 mSv/MBq and the Photon dose (Pancreas) was 4.90E−03 mSv/MBq and 5.90E−03 mSv/MBq and 4.18E−03 mSv/MBq and 5.04E−03 mSv/MBq. The Total dose (Pancreas) was 1.69E−02 mSv/MBq and 2.21E−02 mSv/MBq and 1.54E−02 mSv/MBq and the Alpha dose (Red Marrow) was 0.00E+00 mSv/MBq.
